Key:
Assay in all cases: Pre-emergent Test III, preemergent activity in wheat and barley
APESV = type: in vivo, Apera spica-venti; settings: for GR50 APESV / GR80 APESV: 21 days after application, probit analysis; for GR50 APESV: dose to kill or control 50%; for GR80 APESV: dose to kill or control 80%
Method: (§1) Pre-emergent Test III. Seeds of test species were planted into square plastic pots (10 cm wide) containing sandy loam soil. After planting, all pots were sub-irrigated 16 h prior to compound application. A weighed amount, determined by the highest rate to be tested, of each test compound was placed in a 25 mL glass vial and was dissolved in 4 mL of a 97:3 v/v mixture of acetone and DMSO to obtain concentrated stock solutions. […] The concentrated stock solutions obtained were diluted with 20 mL of an aqueous mixture containing water and 0.02% w/v (weight/volume) of Triton X-155 to obtain spray solutions containing the highest application rates. Additional application rates were obtained by serial dilution of 12 mL of the high rate solution into a solution containing 2 mL of 97:3 v/v mixture of acetone and DMSO and 10 mL of an aqueous mixture containing water and 0.02% w/v (weight/volume) of Triton X-155 to obtain 1⁄2×, 1⁄4×, 1⁄8× and 1/16× rates of the high rate. Compound requirements are based upon a 12 mL application volume at a rate of 187 liters per hectare (L/ha). Formulated compounds were applied to the soil surface with an overhead Mandel track sprayer equipped with […] nozzles calibrated to deliver 187 L/ha over an application area of 0.503 square meters. Control pots were sprayed in the same manner with the solvent blank. The treated pots and control pots were placed in a greenhouse as described above and watered through surface irrigation. After 21 d, the condition of the test pots as compared with that of the untreated pots was determined visually and scored on a scale of 0 to 100 percent where 0 corresponds to no herbicidal effect and 100 corresponds to plant death or lack of emergence from the soil. By applying the well-accepted probit analysis as described by J. Berkson in Journal of the American Statistical Society, 48, 565 (1953) and by D. Finney in “Probit Analysis” Cambridge University Press (1952), the above data can be used to calculate GR20, GR50, GR80 and GR90 values, which are defined as growth reduction factors that correspond to the effective dose of herbicide required to kill or control 20 percent, 50 percent, 80 percent or 90 percent, respectively, of a target plant.

LAMSS = type: in vivo; settings: for GR50 LAMSS / GR80 LAMSS: 21 days after application, probit analysis; for GR50 LAMSS: dose to kill or control 50%; for GR80 LAMSS: dose to kill or control 80%
Method: as §1

LOLSS = type: in vivo, Lolium multiflorum, Lolium rigidum; settings: for GR50 LOLSS / GR80 LOLSS: 21 days after application, probit analysis; for GR50 LOLSS: dose to kill or control 50%; for GR80 LOLSS: dose to kill or control 80%
Method: as §1

SETVI = type: in vivo, Setaria viridis; settings: for GR50 SETVI / GR80 SETVI: 21 days after application, probit analysis; for GR50 SETVI: dose to kill or control 50%; for GR80 SETVI: dose to kill or control 80%
Method: as §1

HORSS = type: in vivo, Hordeum vulgare; settings: for GR20 HORSS: 21 days after application, dose to kill or control 20%, probit analysis
Method: as §1

TRZSS = type: in vivo, Triticum aestivum; settings: for GR20 TRZSS: 21 days after application, dose to kill or control 20%, probit analysis
Method: as §1

SMILES | Visual Growth Reduction (%) 21 Days After Application, APESV (APESV; 35 g ai/ha) | Visual Growth Reduction (%) 21 Days After Application, APESV (APESV; 70 g ai/ha) | GR50 APESV (APESV) [g ai/ha] | GR80 APESV (APESV) [g ai/ha] | Visual Growth Reduction (%) 21 Days After Application, LAMSS (LAMSS; 35 g ai/ha) | Visual Growth Reduction (%) 21 Days After Application, LAMSS (LAMSS; 70 g ai/ha) | GR50 LAMSS (LAMSS) [g ai/ha] | GR80 LAMSS (LAMSS) [g ai/ha] | Visual Growth Reduction (%) 21 Days After Application, LOLSS (LOLSS; 35 g ai/ha) | Visual Growth Reduction (%) 21 Days After Application, LOLSS (LOLSS; 70 g ai/ha) | GR50 LOLSS (LOLSS) [g ai/ha] | GR80 LOLSS (LOLSS) [g ai/ha] | Visual Growth Reduction (%) 21 Days After Application, SETVI (SETVI; 35 g ai/ha) | Visual Growth Reduction (%) 21 Days After Application, SETVI (SETVI; 70 g ai/ha) | GR50 SETVI (SETVI) [g ai/ha] | GR80 SETVI (SETVI) [g ai/ha] | Visual Growth Reduction (%) 21 Days After Application, HORSS (HORSS; 35 g ai/ha) | Visual Growth Reduction (%) 21 Days After Application, HORSS (HORSS; 70 g ai/ha) | GR20 HORSS (HORSS) [g ai/ha] | Visual Growth Reduction (%) 21 Days After Application, TRZSS (TRZSS; 35 g ai/ha) | further results
Nc1c(F)c(-c2ccc(Br)cc2)nc(C(=O)O)c1Cl [Compound 20] | A (95-100) | A (95-100) | 6 | 16 | A (95-100) | A (95-100) | 6 | 9 | G (0-29) | E (45-59) | >70 | >70 | F (30-44) | B (85-94) | 32 | 71 | F (30-44) | E (45-59) | 17 | E (45-59) | Visual Growth Reduction (%) 21 Days After Application, TRZSS (TRZSS; 70 g ai/ha): E (45-59); GR20 TRZSS (TRZSS): 10 g ai/ha
Nc1c(F)c(-c2cc(F)c(Br)cc2F)nc(C(=O)O)c1Cl [Compound 42, 4-amino-6-(4-bromo-2,5-difluorophenyl)-3-chloro-5-fluoropicolinic acid] | B (85-94) | A (95-100) | 12 | 27 | A (95-100) | A (95-100) | 1 | 1 | G (0-29) | G (0-29) | >70 | >70 | E (45-59) | D (60-74) | 36 | >70 | F (30-44) | E (45-59) | 11 | E (45-59) | Visual Growth Reduction (%) 21 Days After Application, TRZSS (TRZSS; 70 g ai/ha): E (45-59); GR20 TRZSS (TRZSS): 5 g ai/ha
Nc1c(F)c(-c2ccc(Br)c(F)c2F)nc(C(=O)O)c1Cl [Compound 147] | C (75-84) | B (85-94) | 19 | 33 | A (95-100) | A (95-100) | 1 | 5 | G (0-29) | G (0-29) | 52 | >70 | E (45-59) | C (75-84) | 17 | >70 | G (0-29) | G (0-29) | 70 | F (30-44) | Visual Growth Reduction (%) 21 Days After Application, TRZSS (TRZSS; 70 g ai/ha): F (30-44); GR20 TRZSS (TRZSS): 23 g ai/ha
C=Cc1c(C(=O)O)nc(-c2ccc(Cl)c(F)c2)c(F)c1N [Compound 214] | C (75-84) | A (95-100) | 13 | 28 | A (95-100) | A (95-100) | 1 | 2 | G (0-29) | E (45-59) | >70 | >70 | G (0-29) | G (0-29) | >70 | >70 | G (0-29) | G (0-29) | 93 | G (0-29) | Visual Growth Reduction (%) 21 Days After Application, TRZSS (TRZSS; 70 g ai/ha): F (30-44); GR20 TRZSS (TRZSS): 28 g ai/ha

From patent US9113629B2, “4-amino-6-(4-substituted-phenyl)-picolinates and 6-amino-2-(4-substituted-phenyl)-pyrimidine-4-carboxylates and their use as herbicides” (DOW AGROSCIENCES LLC, priority 2013, dated 2015)
